According to patent publication US7816406B2, “Quinolone analogs” (Cylene Pharmaceuticals, Inc., priority 2004, dated 2010):

How the values were obtained:
Type in all cases: cell-based
MiaPaca = assay: MTS cell proliferation assay, MiaPaca; conditions: Homo sapiens, MIA PaCa-2, M CELL MiaPaca, Table 1C
Method: MTS assays. Antiproliferative effects of anticancer drugs are tested by the CellTiter 96 AQueous assay (Promega, WI), which is a colorimetric assay for determining the number of viable cells. (See, e.g., Wang, L., et al., Methods Cell Sci (1996) 18:249-255). Generally, cells (2,000 to 5,000 cells/well) are seeded on 96 well flat bottom plates (Corning, NY) in 100 μl of culture medium without any anticancer drug on day 0, and the culture medium is exchanged for that contained anticancer drugs at various concentrations on day 1. After incubation for 3 days under normal growth conditions (on day 4), the monolayers are washed once in PBS, and the medium is switched to 100 μl of PBS in each of the 96 well plate. After mixing MTS and PMS at the ratio of 20:1, 20 μl of MTS/PMS solution is added to each of the 96 well plate and incubated for 4 hours in a humidified atmosphere of 5% CO2 at 37° C. The absorbance is read at 490 nm using FLUOstar Galaxy 96 well plate reader (BMG Labtechnologies, Germany).

Hela = assay: TumorCell MeanTimeSurvival (Alamar Blue Stain), Hela; conditions: Homo sapiens
HCT-116 = assay: TumorCell MeanTimeSurvival (Alamar Blue Stain), HCT-116; conditions: Homo sapiens
PC3 = assay: TumorCell MeanTimeSurvival (Alamar Blue Stain), PC3; conditions: Homo sapiens, PC-3

Structure (SMILES): O=C(NCCN1CCCC1)c1c(=O)c2ccc(N3CCN(c4ncccn4)CC3)nc2n2c1sc1ccc(Cl)cc12 [drawing 286]
- IC50 (MiaPaca): 2500 nM

Structure (SMILES): CC(C)Nc1ncc2c(=O)c(C(=O)NCCN3CCCC3)c3sc4ccccc4n3c2n1 [drawing 330]
- IC50 (MiaPaca): 110 nM

Structure (SMILES): CN1CCCC1CCNC(=O)c1c(=O)c2ccc(N3CCNCC3)nc2n2c1sc1ccccc12 (stereo not drawn) [drawing 358]
- IC50 (MiaPaca): 10 nM

Structure (SMILES): CN1CCCC1CCNC(=O)c1c(=O)c2cc(F)c(SCCc3cnccn3)cc2n2c1sc1ccccc12 (stereo not drawn) [drawing 471]
- IC50 (Hela): 2800 nM
- IC50 (HCT-116): 1100 nM
- IC50 (PC3): 2700 nM

Structure (SMILES): O=C(NCCN1CCCC1)c1c(=O)c2cc(F)c(SCCc3cnccn3)cc2n2c1sc1ccccc12 [drawing 472]
- IC50 (Hela): 2700 nM
- IC50 (HCT-116): 570 nM
- IC50 (PC3): 520 nM
